Consider 23 compounds from ChEMBL document CHEMBL4043309, “Computer-Aided Discovery and Characterization of Novel Ebola Virus Inhibitors” (J Med Chem, 2018).

In general, IC50 refers to the point on the concentration scale where inhibition reaches its midpoint. As a reminder, the EC50 is the midpoint of the concentration-response curve.

Series [1] is described as follows: cells. The format is cell-based, Ebolavirus. The conditions noted are these: Orthoebolavirus, HeLa, 4.5 h.
A short description of series [2]: in vitro. The conditions noted are these: human, hela.
Series [3] in a line: in vitro. Particulars: human, hela. This is another data set of the same source.
For series [4], the system named is Ebolavirus. Put plainly: Antiviral activity against Ebolavirus Mayinga infected in African green monkey Vero E6 cells after 72 hrs by eGFP assay. It counts as functional. The conditions noted are these: Orthoebolavirus, Vero C1008, 72 h.
The target of series [5] is Cathepsin B (Homo sapiens) (UniProt P07858). Put plainly: Inhibition of recombinant cathepsin B (unknown origin) at 10 uM using Ac-RR-AFC as substrate preincubated for 29 mins followed by substrate addition by fluorescence-based assay.
Series [6] concerns the target Procathepsin L (Homo sapiens) (UniProt P07711). Particulars: at 10 µM.

Active and inactive are the calls of the source. No cut-off for these calls is given here.

Procathepsin L (Homo sapiens), sequence (P07711 114-333 limits assumed): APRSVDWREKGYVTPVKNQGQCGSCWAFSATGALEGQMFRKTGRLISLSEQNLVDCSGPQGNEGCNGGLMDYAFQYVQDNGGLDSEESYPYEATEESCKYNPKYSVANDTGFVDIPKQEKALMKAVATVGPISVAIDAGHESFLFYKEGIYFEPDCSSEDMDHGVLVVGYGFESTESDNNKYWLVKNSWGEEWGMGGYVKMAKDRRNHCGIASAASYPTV

`CCC(=C(c1ccc(O)cc1)c1ccc(OCCN(C)C)cc1)c1ccccc1` had an IC50 in series [1] of 1.96 µM. For the same compound, the selectivity ratio in series [2] and in series [3] was 123 throughout.

As to `Nc1ncnc2c1c(-c1cccc(OCc3ccccc3)c1)cn2[C@H]1C[C@H](CN2CCCC2)C1`, the IC50 in series [1] was 3.05 µM; in series [4], 1 to 10 µM. Besides, the selectivity ratio in series [2] and in series [3] was 13 throughout.

With `Cc1[nH]c2c(CN3CC(CO)C(CN4CCCC4)C3)cccc2c1C` (stereo unspecified), the results for the IC50 in series [1] and in series [4] were 6.09 µM and 1 to 10 µM, respectively. For the same compound, the selectivity ratio in series [2] and in series [3] was 82 throughout.

Turning to `Cc1ccc(CN2CCCN(C)C3(CCN(C)CC3)C2)cc1C`, the figures for the IC50 in series [1] and in series [4] were 6.83 µM and 1 to 10 µM, respectively. Further, the selectivity ratio in series [2] and in series [3] was 73 each time.

For `CNC1CCC(N(Cc2cccc(-c3ccncc3)c2)C(=O)c2sc3c(F)ccc(F)c3c2Cl)CC1` (stereo unspecified), it took 7.67 µM to reach half-maximal inhibition in series [1] (IC50). Further, the selectivity ratio in series [2] and in series [3] was 65 each time.

For the compound `CN(C)c1ccccc1CN1CCCN(Cc2ccccc2N(C)C)C1c1ccncc1`, the IC50 in series [1] was determined as 6.83 µM. In addition, the inhibition result in series [5] and in series [6] was “Active” each time. The selectivity ratio in series [2] and in series [3] was 73 in each case.

As for `COc1cc2nc(N3CCCN(C)CC3)nc(NC3CCN(Cc4ccccc4)CC3)c2cc1OC`, the IC50 is 0.966 µM in series [1] and 1 to 10 µM in series [4]. The selectivity ratio in series [2] and in series [3] was 45 in each case.

With `CC(C)(C)c1ccc(C(=O)CCCN2CCC(OC(c3ccccc3)c3ccccc3)CC2)cc1`, the inhibition entry in series [6] is “Active”.

Regarding `CCN(CC)CCCN(c1ccccc1)C1Cc2ccccc2C1` [APRINDINE], the IC50 in series [1] was determined as 7.69 µM.

`COc1cc(Nc2c(C#N)cnc3cc(OCCCN4CCN(C)CC4)c(OC)cc23)c(Cl)cc1Cl` [BOSUTINIB] returned an IC50 in series [1] of 3.85 µM.

Regarding `COc1cc2c(Oc3ccc4[nH]c(C)cc4c3F)ncnc2cc1OCCCN1CCCC1` [CEDIRANIB], inhibition in series [1] was half-maximal at 7.67 µM (IC50). In addition, the selectivity ratio in series [2] and in series [3] was 65 each time.

In series [1], `COc1ccc2cc1Oc1ccc(cc1)C[C@H]1c3c(cc4c(c3Oc3cc5c(cc3OC)CCN(C)[C@@H]5C2)OCO4)CCN1C` [CEPHARANTHINE] returned an IC50 of 1.53 µM.

Compound `CN1[C@@H]2CC[C@H]1C[C@@H](OC1c3ccccc3CCc3ccccc31)C2` [DEPTROPINE] had an IC50 in series [1] of 6.58 µM. The inhibition result in series [6] is “Active”. For the same compound, the selectivity ratio in series [2] and in series [3] was 76 in each case.

Compound `CCCCc1oc2ccc(NS(C)(=O)=O)cc2c1C(=O)c1ccc(OCCCN(CCCC)CCCC)cc1` [DRONEDARONE] gave an IC50 in series [1] of 2.2 µM.

`CC/C(=C(\c1ccc(O)cc1)c1ccc(OCCNC)cc1)c1ccccc1` [ENDOXIFEN] yielded an IC50 in series [1] of 3.05 µM. Besides, the selectivity ratio in series [2] and in series [3] was 164 each time.

For the compound `COc1ccc2cc1Oc1ccc(cc1)C[C@H]1c3cc(c(OC)cc3CCN1C)Oc1c(OC)c(OC)cc3c1[C@H](C2)N(C)CC3` [FANCHININ], it took 2.16 µM to reach half-maximal inhibition in series [1] (IC50). Moreover, the selectivity ratio in series [2] and in series [3] was 22 throughout.

In series [1], `COCC(=O)O[C@]1(CCN(C)CCCc2nc3ccccc3[nH]2)CCc2cc(F)ccc2[C@@H]1C(C)C` [MIBEFRADIL] gave an IC50 of 4.32 µM.

Turning to `CC(=O)N(C)C1(c2ccccc2)CCN(CCC[C@]2(c3ccc(Cl)c(Cl)c3)CCCN(C(=O)c3ccccc3)C2)CC1` [OSANETANT], in series [1], the IC50 was determined as 9.65 µM. Moreover, the selectivity ratio in series [2] and in series [3] was 52 in each case.

Compound `CN1CCN(CCCN2c3ccccc3Sc3ccc(S(=O)(=O)N(C)C)cc32)CC1` [THIOPROPERAZINE] showed an IC50 in series [1] of 4.32 µM.

`CC[C@]1(O)C[C@@H]2CN(CCc3c([nH]c4ccccc34)[C@@](C(=O)OC)(c3cc4c(cc3OC)N(C)[C@H]3[C@@](O)(C(=O)OC)[C@H](OC(C)=O)[C@]5(CC)C=CCN6CC[C@]43[C@@H]65)C2)C1` [VINBLASTINE] yielded an EC50 in series [1] of 0.048 µM.

In series [1], `CC[C@]1(O)C[C@H]2CN(CCc3c([nH]c4ccccc34)[C@@](C(=O)OC)(c3cc4c(cc3OC)N(C=O)[C@H]3[C@@](O)(C(=O)OC)[C@H](OC(C)=O)[C@]5(CC)C=CCN6CC[C@]43[C@@H]65)C2)C1` [VINCRISTINE] gave an IC50 of 0.141 µM.

With `CC[C@]1(O)C[C@@H]2CN(CCc3c([nH]c4ccccc34)[C@@](C(=O)OC)(c3cc4c(cc3OC)N(C)[C@H]3[C@@](O)(C(N)=O)[C@H](O)[C@]5(CC)C=CCN6CC[C@]43[C@@H]65)C2)C1` [VINDESINE], the IC50 in series [1] stood at 0.272 µM. Besides, the selectivity ratio in series [2] and in series [3] was 1840 throughout.

In turn, `CCC1=C[C@@H]2CN(C1)Cc1c([nH]c3ccccc13)[C@@](C(=O)OC)(c1cc3c(cc1OC)N(C)[C@H]1[C@@](O)(C(=O)OC)[C@H](OC(C)=O)[C@]4(CC)C=CCN5CC[C@]31[C@@H]54)C2` [VINORELBINE] displayed an IC50 in series [1] of 0.066 µM.
